Measurements from article PMC5785467 (Nature, 2018).

Biological target: T1, beetle ICMT (Tribolium castaneum, UniProt D6WJ77)
T1 sequence (D6WJ77 1-281): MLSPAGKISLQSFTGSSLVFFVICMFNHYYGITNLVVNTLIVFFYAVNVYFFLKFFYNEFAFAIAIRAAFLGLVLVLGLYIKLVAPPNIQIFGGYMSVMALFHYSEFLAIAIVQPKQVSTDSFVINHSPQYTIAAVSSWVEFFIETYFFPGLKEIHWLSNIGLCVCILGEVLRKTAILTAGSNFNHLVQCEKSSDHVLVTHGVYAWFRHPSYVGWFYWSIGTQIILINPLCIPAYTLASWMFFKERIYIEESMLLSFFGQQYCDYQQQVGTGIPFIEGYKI
Test: X-ray crystal structure, […] Å
Type: binding
Settings: complex with monobody MB-15, lipidic cubic phase; cofactor site

Question: `Nc1ncnc2c1ncn2[C@@H]1O[C@H](CSCC[C@H](N)C(=O)O)[C@@H](O)[C@H]1O` [AdoHcy] was tested. Which “X-ray crystal structure, 2.3 Å” value did it give?
Answer: The value was “AdoHcy is encapsulated within a pocket that is formed by the M6–M7 connector”.
